The results in this text go back to patent US20260042762A1 (Kymera Therapeutics, Inc., priority 2018, published 2026).

Molecules are shown by their SMILES. Counter-ions that a name gives are not always drawn.

The experiment deals with T1, MerTK (Homo sapiens, UniProt Q12866).
T1 construct: endogenous in cells; host or cells: Jurkat cells
T1 sequence (Q12866 21-999): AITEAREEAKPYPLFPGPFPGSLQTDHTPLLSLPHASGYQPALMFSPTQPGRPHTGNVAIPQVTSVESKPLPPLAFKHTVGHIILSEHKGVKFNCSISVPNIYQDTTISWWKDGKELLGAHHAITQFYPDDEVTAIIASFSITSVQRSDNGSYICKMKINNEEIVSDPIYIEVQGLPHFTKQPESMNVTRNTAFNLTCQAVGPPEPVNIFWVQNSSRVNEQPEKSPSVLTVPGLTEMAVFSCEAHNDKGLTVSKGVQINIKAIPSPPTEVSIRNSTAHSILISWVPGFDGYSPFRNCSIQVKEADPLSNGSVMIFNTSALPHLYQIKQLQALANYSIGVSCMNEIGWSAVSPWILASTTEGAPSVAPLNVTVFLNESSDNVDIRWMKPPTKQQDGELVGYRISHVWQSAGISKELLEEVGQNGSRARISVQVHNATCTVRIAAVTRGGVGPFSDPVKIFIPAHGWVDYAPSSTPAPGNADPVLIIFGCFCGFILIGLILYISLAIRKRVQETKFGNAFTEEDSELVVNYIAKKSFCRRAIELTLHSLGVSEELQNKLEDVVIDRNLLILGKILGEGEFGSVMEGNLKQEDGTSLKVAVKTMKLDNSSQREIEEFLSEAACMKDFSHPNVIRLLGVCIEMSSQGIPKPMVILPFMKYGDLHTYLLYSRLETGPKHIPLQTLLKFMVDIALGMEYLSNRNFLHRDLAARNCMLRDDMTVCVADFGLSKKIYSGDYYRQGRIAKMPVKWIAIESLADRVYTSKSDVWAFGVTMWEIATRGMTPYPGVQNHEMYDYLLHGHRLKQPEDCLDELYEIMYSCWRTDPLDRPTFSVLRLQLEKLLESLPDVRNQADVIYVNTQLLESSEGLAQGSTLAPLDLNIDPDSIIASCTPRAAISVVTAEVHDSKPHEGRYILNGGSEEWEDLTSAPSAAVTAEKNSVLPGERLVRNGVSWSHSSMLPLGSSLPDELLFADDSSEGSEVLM
As to the kind of experiment: MerTk degradation in Jurkat cells (Western blot). The experiment is classed as cell-based. Conditions: Jurkat, 4 h, 0.001-1 μM, 4 hour-incubation at 37° C., read-out: Jurkat Max % MerTK Degradation. On the procedure: Compounds were reconstituted in DMSO to make 10 mM stock solutions. […] Cells were seeded into 6-well plates with about 5×10^6 cells per well. 2 μL of diluted compounds were added to cells to the final concentration of 0.001-1 μM. After a 4 hour-incubation at 37° C., cells were collected into 2 mL Eppendorf tubes and centrifuged at 1,000 rpm for 5 min. The cell pellets were washed with DPBS (1×) once and resuspended in 60 μL RIPA lysis buffer with Halt Protease and Phophatase Inhibitor Cocktail. The cells were lysed on ice for 10 min, then centrifuged at 14,000 rpm for 10 min at 4° C. and the supernatants were collected for western blots.
The protein concentration of cell lysates was quantified with Pierce™ BCA Protein Assay Kit. […] BCA working reagents were prepared by mixing BCA reagent A with reagent B in 50: 1 ratio. 200 μL of the BCA working reagents were added to 25 μL of BCA standard or cell lysates in microplate, and mixed thoroughly on a plate shaker for 30 seconds. After incubation at 37° C. for 30 min, the absorbance of samples at 562 nm were measured with EnVision Plate Reader.
Protein lysates were prepared in NuPAGE™ LDS sample buffer and NuPAGE™ sample reducing agent, and incubated at 95° C. for 5 min. […] The proteins were transferred to low fluorescence PVDF membranes using the Trans-Blot Turbo Transfer System. Membranes were then blocked in Odyssey blocking buffer at RT for 1 h followed by primary incubation at 4° C. overnight. The primary antibodies were MerTK rabbit monoclonal antibody and actin mouse monoclonal antibody. Membranes were washed three times with TBST (1×), and then incubated with IR Dye 800 CW Goat anti-rabbit and IR Dye 700 CW Goat anti-mouse secondary antibodies in 1:10,000 dilution at RT for 1 h. The Western blot images were obtained using Odyssey Imaging System.
(A western blot detects proteins with antibodies after separation by electrophoresis.)
Take `CCCCNc1ncc2c(-c3ccc(CNCCOCCCc4ccc5c(c4)n(C)c(=O)n5[C@H]4CCC(=O)NC4=O)cc3)cn([C@H]3CC[C@H](O)CC3)c2n1` [I-54, 3-[5-(3-[2-[([4-[2-(butylamino)-7-[trans-4-hydroxycyclohexyl]-7H-pyrrolo[2,3-d]pyrimidin-5-yl]phenyl]methyl)amino]ethoxy]propyl)-3-methyl-2-oxo-2,3-dihydro-1H-1,3-benzodiazol-1-yl]piperidine-2,6-dione]: the Dmax was in the range of 20 to 50%.

Regarding `Cn1c(=O)n([C@H]2CCC(=O)NC2=O)c2ccc(CCCOCCOCCOCCN3CCN(Cc4ccc(-c5cn([C@H]6CC[C@H](O)CC6)c6nc(NCCC(F)(F)F)ncc56)cc4)CC3)cc21` [I-55, 3-[3-methyl-2-oxo-5-(3-[2-[2-(2-[4-[(4-[7-[trans-4-hydroxycyclohexyl]-2-[(3,3,3-trifluoropropyl)amino]-7H-pyrrolo[2,3-d]pyrimidin-5-yl]phenyl)methyl]piperazin-1-yl]ethoxy)ethoxy]ethoxy]propyl)-2,3-dihydro-1H-1,3-benzodiazol-1-yl]piperidine-2,6-dione], the Dmax is above 50%.

Turning to `Cn1c(=O)n([C@H]2CCC(=O)NC2=O)c2ccc(CCCOCCOCCN3CCN(Cc4ccc(-c5cn([C@H]6CC[C@H](O)CC6)c6nc(NCCC(F)(F)F)ncc56)cc4)CC3)cc21` [I-56, 3-(3-methyl-2-oxo-5-[3-[2-(2-[4-[(4-[7-[trans-4-hydroxycyclohexy1]-2-[(3,3,3-trifluoropropyl)amino]-7H-pyrrolo[2,3-d]pyrimidin-5-yl]phenyl)methyl]piperazin-1-yl]ethoxy)ethoxy]propyl]-2,3-dihydro-1H-1,3-benzodiazol-1-yl)piperidine-2,6-dione], the Dmax was above 50%.

Turning to `CCCCNc1ncc2c(-c3ccc(CN4CCN(CCOCCOCCOCCOCCCc5ccc6c(c5)n(C)c(=O)n6[C@H]5CCC(=O)NC5=O)CC4)cc3)cn(C3CCCCC3)c2n1` [I-57, 3-(5-[1-[4-([4-[2-(butylamino)-7-cyclohexy1-7H-pyrrolo[2,3-d]pyrimidin-5-yl]phenyl]methyl)piperazin-1-yl]-3,6,9,12-tetraoxapentadecan-15-y1]-3-methyl-2-oxo-2,3-dihydro-1H-1,3-benzodiazol-1-y1)piperidine-2,6-dione], the Dmax was above 50%.

In the case of `CCCCNc1ncc2c(-c3ccc(CN4CCN(CCOCCOCCOCCOCCCc5ccc6c(c5)n(C)c(=O)n6[C@H]5CCC(=O)NC5=O)CC4)cc3F)cn([C@H]3CC[C@H](O)CC3)c2n1` [I-58, 3-(5-[1-[4-([4-[2-(butylamino)-7-[trans-4-hydroxycyclohexy1]-7H-pyrrolo[2,3-d]pyrimidin-5-y1]-3-fluorophenyl]methyl)piperazin-1-y1]-3,6,9,12-tetraoxapentadecan-15-y1]-3-methyl-2-oxo-2,3-dihydro-1H-1,3-benzodiazol-1-yl)piperidine-2,6-dione], the Dmax was above 50%.

In the case of `CCCCNc1ncc2c(-c3ccc(C(C)N4CCN(CCOCCOCCOCCOCCCc5ccc6c(c5)n(C)c(=O)n6C5CCC(=O)NC5=O)CC4)cc3)cn([C@H]3CC[C@H](O)CC3)c2n1` (stereo partly drawn) [I-59, 3-(5-[1-[4-(1-[4-[2-(butylamino)-7-[trans-4-hydroxycyclohexy1]-7H-pyrrolo[2,3-d]pyrimidin-5-yl]phenyl]ethyl)piperazin-1-yl]-3,6,9,12-tetraoxapentadecan-15-y1]-3-methyl-2-oxo-2,3-dihydro-1H-1,3-benzodiazol-1-yl)piperidine-2,6-dione], the Dmax is above 50%.

`CCCCNc1ncc2c(-c3ccc(S(=O)(=O)N4CCN(CCOCCOCCOCCOCCCc5ccc6c(c5)n(C)c(=O)n6[C@H]5CCC(=O)N(C)C5=O)CC4)cc3)cn([C@H]3CC[C@H](O)CC3)c2n1` [I-60, 3-[5-[1-(4-[4-[2-(butylamino)-7-[trans-4-hydroxycyclohexyl]-7H-pyrrolo[2,3-d]pyrimidin-5-yl]benzenesulfonyl]piperazin-1-yl)-3,6,9,12-tetraoxapentadecan-15-y1]-3-methyl-2-oxo-2,3-dihydro-1H-1,3-benzodiazol-1-yl]-1-methylpiperidine-2,6-dione; formic acid]: the Dmax is below 20%.

Turning to `CCCCNc1ncc2c(-c3ccc(CN4CCN(CCOCCOCCOCCOCCNc5ccc6c(c5)n(C)c(=O)n6[C@H]5CCC(=O)NC5=O)CC4)cc3)cn([C@H]3CC[C@H](O)CC3)c2n1` [I-61, 3-(5-[15-[4-([4-[2-(butylamino)-7-[trans-4-hydroxycyclohexyl]-7H-pyrrolo[2,3-d]pyrimidin-5-yl]phenyl]methyl)piperazin-1-y1]-4,7,10,13-tetraoxa-1-azapentadecan-1-y1]-3-methyl-2-oxo-2,3-dihydro-1H-1,3-benzodiazol-1-y1)piperidine-2,6-dione; bis(formic acid)], the Dmax was above 50%.

Consider `CCCCNc1ncc2c(-c3ccc(CN4CCN(CCCOCCCOCCCc5ccc6c(c5)n(C)c(=O)n6[C@H]5CCC(=O)NC5=O)CC4)cc3)cn([C@H]3CC[C@H](O)CC3)c2n1` [I-62, 3-[5-[3-(3-[3-[4-([4-[2-(butylamino)-7-[trans-4-hydroxycyclohexy1]-7H-pyrrolo[2,3-d]pyrimidin-5-yl]phenyl]methyl)piperazin-1-y1]propoxy]propoxy)propy1]-3-methyl-2-oxo-2,3-dihydro-1H-1,3-benzodiazol-1-y1]piperidine-2,6-dione dihydrochloride], for which the Dmax was above 50%.

With `Cn1c(=O)n([C@H]2CCC(=O)NC2=O)c2ccc(CCCOCCOCCOCCN3CCN(Cc4ccc(-c5nn([C@H]6CC[C@H](O)CC6)c6nc(NCCC(F)(F)F)ncc56)cc4)CC3)cc21` [I-63, 3-[3-methyl-2-oxo-5-(3-[2-[2-(2-[4-[(4-[1-[trans-4-hydroxycyclohexyl]-6-[(3,3,3-trifluoropropyl)amino]-1H-pyrazolo[3,4-d]pyrimidin-3-yl]phenyl)methyl]piperazin-1-yl]ethoxy)ethoxy]ethoxy]propyl)-2,3-dihydro-1H-1,3-benzodiazol-1-yl]piperidine-2,6-dione; formic acid], the Dmax is above 50%.

Take `Cn1c(=O)n([C@H]2CCC(=O)NC2=O)c2ccc(CCCOCCOCCN3CCN(Cc4ccc(-c5nn([C@H]6CC[C@H](O)CC6)c6nc(NCCC(F)(F)F)ncc56)cc4)CC3)cc21` [I-64, 3-(3-methyl-2-oxo-5-[3-[2-(2-[4-[(4-[1-[trans-4-hydroxycyclohexyl]-6-[(3,3,3-trifluoropropyl)amino]-1H-pyrazolo[3,4-d]pyrimidin-3-yl]phenyl)methyl]piperazin-1-yl]ethoxy)ethoxy]propyl]-2,3-dihydro-1H-1,3-benzodiazol-1-y1)piperidine-2,6-dione]: the Dmax was above 50%.

As to `CCCCNc1ncc2c(-c3ccc(CN4CCC(OCCCOCCCc5ccc6c(c5)n(C)c(=O)n6[C@H]5CCC(=O)NC5=O)CC4)cc3)cn([C@H]3CC[C@H](O)CC3)c2n1` [I-66, 3-[5-[3-(3-[[1-([4-[2-(butylamino)-7-[trans-4-hydroxycyclohexyl]-7H-pyrrolo[2,3-d]pyrimidin-5-yl]phenyl]methyl)piperidin-4-yl]oxy]propoxy)propyl]-3-methyl-2-oxo-2,3-dihydro-1H-1,3-benzodiazol-1-yl]piperidine-2,6-dione], the Dmax was above 50%.
